Reference: paper PMC8149832, “A comparative study of synthetic winged peptides for absolute protein quantification” (Scientific Reports, 2021)
Ends that are not written are not given here.

These substances were tested against T1, Trypsin (Sus scrofa, UniProt P00761) (assay: Trypsin digestion efficiency / kinetics of signature peptide formation). Settings: trypsin 1:20 w/w, 37 °C, AmBic/SDC buffer with 5% ACN reconstitution; 0.5-24 h; SRM peak area; Figs. 4, S3, S4.
T1 construct: purchased Promega V5280
T1 sequence (P00761 9-231): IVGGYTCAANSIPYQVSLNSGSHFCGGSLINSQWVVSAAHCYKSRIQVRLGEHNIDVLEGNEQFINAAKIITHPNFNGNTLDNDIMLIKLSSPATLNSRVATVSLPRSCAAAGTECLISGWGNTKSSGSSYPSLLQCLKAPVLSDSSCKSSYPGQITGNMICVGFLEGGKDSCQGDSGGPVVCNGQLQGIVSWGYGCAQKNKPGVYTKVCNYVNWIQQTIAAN
Type: biochemical
Method: HSA concentration in the pooled serum sample diluted twofold with ultrapure water was determined using BCG albumin assay kit on the 96-well plate format (cat. #MAK124-1KT, Sigma-Aldrich). The seven-point calibration series was prepared using HSA standard (5 to 50 mg/mL) in ultrapure water. The absorption spectrophotometry was measured at 620 nm wavelength. The pooled serum sample (10 µL), diluted 2000-fold using 50 mM AmBic with 5 mg/mL SDC (AmBic/SDC buffer) to HSA concentration of approx. 500 nM and transferred into a clean microcentrifuge tube. After adding SIL protein or peptide internal standard (10 µL), the sample was reduced (adding 1 µL of 200 mM DTT stock solution, 95 °C, 10 min), cooled down to ambient temperature, and cysteine residues were alkylated (adding 1 µL of 400 mM IAAstock solution, ambient temperature, 30 min in the dark). Trypsin was added to the sample in a 1:20 ratio (w/w enzyme to total protein content), and samples were incubated (37 °C, 16 h) in microcentrifuge tubes sealed with a paraffin film. The enzymatic proteolysis was quenched at different time points (0.5, 2, 4, 8, 16, and 24 h; n = 3) to optimize the incubation time. The proteolysis was quenched by adding 200 µL of 2% FA in water (pH < 3), and tryptic peptides were desalted using a mixed-mode SPE cartridge in a 96-well plate format (Oasis PRIME HLB, Waters, Milford, MA). Samples were loaded onto the SPE cartridge, washed (300 µL water with 2% FA, pH < 3), eluted (50% ACN; 2% FA in water, pH < 3), and the extract was dried in a vacuum concentrator centrifuge (Savant SPD121 P SpeedVac, Thermo Fisher). Samples were dissolved (10 µL) in 5% ACN with 0.1% FA in water before UHPLC-SRM analysis. […]
The enzymatic digestion efficiency severely affects the quantitative performance of a protein assay[10],[11]. […] Overnight trypsin digestion is routinely used for reproducible proteolytic yields as the peptide's stability and formation efficiency may vary[11]. Maximal trypsinization yields of some signature peptides are reached within two hours[10],[16], while other peptides require longer digestion time[30]. We optimized the trypsin digestion duration to ensure reproducible signature peptide yields needed for a quantitative protein assay. We studied the signature peptide formation from light HSA protein and each version of SIL-Ex peptides after 0.5, 2, 4, 8, 16, and 24 h of incubation. SRM peak areas of light and heavy signature peptides and determined HSA protein concentrations (nM) were plotted against incubation time (h), comparing the efficiency of light HSA proteolysis with SIL-Ex peptides (Figs. 4, S3 and S4). The formation of HSA signature peptides LVNE, SLHT, DDNP, YLYE, and QTAL was compared for SIL-TCT, SIL-ExC5, SIL-ExC3N3, and SIL-ExC5N5 peptides (Fig. 4). Besides, the formation of HSA signature peptides DLGE, LCTV, LVTD, TYET, and FQNA was compared for SIL-TCT and SIL-ExC5 peptides only (Fig. S4).

Row | Substance | formation of signature peptide by trypsin digestion, rate or yield (in words)
1 | DDNPNLPRLVRPE | rapidly formed signature peptide DDNP
2 | DDNPNLPRSAnYG [SIL-TCT DDNPNLPR] | rapidly formed signature peptide DDNP
3 | FLQHKDDNPNLPRLVRPE [SIL signature peptide extended with five amino acids at both C- and N-termini] | mimicking the slow digestion kinetics of light HSA protein
4 | LQHKDDNPNLPRLVR [SIL signature peptide extended with three amino acids at both C- and N-termini] | mimicking the slow digestion kinetics of light HSA protein
5 | RQIKKQTALVELVKHKPKA [SIL signature peptide extended with five amino acids at both C- and N-termini] | lower
6 | TFLKKYLYEIARRHPYF (also: stable isotope label, residues not given here) [SIL-ExC5N5 YLYEIAR, SIL signature peptide extended with five amino acids at both C- and N-termini] | lower

Same assay, conditions: trypsin 1:20 w/w, 37 °C, AmBic/SDC buffer; quenched at 0.5, 2, 4, 8, 16, 24 h, n = 3; SRM peak area; Fig. S4

Row | Substance | time to plateau of signature peptide formed from C-terminal extended SIL peptide (in words)
7 | DLGEENFKALVLI | within the initial two hours
8 | DLGEENFKSAnYG [SIL-TCT DLGEENFK] | within the initial two hours
9 | LC*TVATLRETYGE | within the initial two hours
10 | LC*TVATLRSAnYG [SIL-TCT LCTVATLR] | within the initial two hours
